Experimental data as given in PubChem BioAssay AID1919006 (Molecular Pharmacology Branch, DTP, NCI, 2023).
“And” between values parts separate entries of the source, which are not always exact repeats. Equal values may be shown once. Values belong to the compound of their own block, whether it stands above or below them.

Test system: 885512-296-R-J2-PDC complex spheroid growth, % test/control
Test: Anticancer human tumor 885512-296-R-J2-PDC patient-derived breast carcinoma cell line growth inhibition [AhR]
Details: for IC50: curve of first compound; for viability, T/C: stronger effect = lower value
Procedure, shortened: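 Complex tumor spheroids co-cultured with HUVEC and human MSC stroma; AhR antagonists tested in combination with standard-of-care and investigational agents. Top concentration at or near clinical Cmax (else 10 microM), half-log dilutions; growth expressed as percent test/control.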

[1] = second compound 0.1 µM, first compound 0.00949 µM
[2] = second compound 0.1 µM, first compound 0.03 µM
[3] = second compound 0.1 µM, first compound 0.0949 µM
[4] = second compound 0.1 µM, first compound 0.3 µM
[5] = second compound 0.316 µM, first compound 0.00949 µM
[6] = second compound 0.316 µM, first compound 0.03 µM
[7] = second compound 0.316 µM, first compound 0.0949 µM
[8] = second compound 0.316 µM, first compound 0.3 µM
[9] = second compound 1 µM, first compound 0.00949 µM
[10] = second compound 1 µM, first compound 0.03 µM
[11] = second compound 1 µM, first compound 0.0949 µM
[12] = second compound 1 µM, first compound 0.3 µM
[13] = second compound 3.16 µM, first compound 0.00949 µM
[14] = second compound 3.16 µM, first compound 0.03 µM
[15] = second compound 3.16 µM, first compound 0.0949 µM
[16] = second compound 3.16 µM, first compound 0.3 µM
[17] = second compound 10 µM, first compound 0.00949 µM
[18] = second compound 10 µM, first compound 0.03 µM
[19] = second compound 10 µM, first compound 0.0949 µM
[20] = second compound 10 µM, first compound 0.3 µM
[21] = second compound 0.1 µM, first compound 0.0316 µM
[22] = second compound 0.1 µM, first compound 0.1 µM
[23] = second compound 0.316 µM, first compound 0.0316 µM
[24] = second compound 0.316 µM, first compound 0.1 µM
[25] = second compound 1 µM, first compound 0.0316 µM
[26] = second compound 1 µM, first compound 0.1 µM
[27] = second compound 3.16 µM, first compound 0.0316 µM
[28] = second compound 3.16 µM, first compound 0.1 µM
[29] = second compound 10 µM, first compound 0.0316 µM
[30] = second compound 10 µM, first compound 0.1 µM
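Note: spheroids exposed to compounds for seven days.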

SMILES: COc1cc(Nc2ncc3c(n2)-c2ccc(Cl)cc2C(c2c(F)cccc2OC)=NC3)ccc1C(=O)O
viability, T/C (compound 0.0316 µM): 53.5% and 54% and 51.9%
viability, T/C (compound 0.1 µM): 43.2% and 52% and 43.9%
viability, T/C (compound 0.316 µM): 48.8% and 56.9% and 53%
viability, T/C (compound 1 µM): 42.7% and 45% and 41.8%
viability, T/C (compound 3.16 µM): 38.3% and 53.3% and 41.6%
viability, T/C (compound 10 µM): 37% (2×) and 39.3%

SMILES: Cn1ncnc1C1c2n[nH]c(=O)c3cc(F)cc(c23)NC1c1ccc(F)cc1 (stereo unspecified) + CC(CO)NC(=O)c1cc(-c2ccc(Cl)cc2)nn(-c2cnn(C)c2)c1=O
IC50 (second compound 0.1 µM): > 100 nM
IC50 (second compound 0.316 µM): > 100 nM
IC50 (second compound 1 µM): > 100 nM
IC50 (second compound 3.16 µM): > 100 nM
IC50 (second compound 10 µM): > 100 nM
viability, T/C (second compound 0.1 µM, first compound 0.000316 µM): 107%
viability, T/C (second compound 0.1 µM, first compound 0.001 µM): 108%
viability, T/C (second compound 0.1 µM, first compound 0.00316 µM): 103%
viability, T/C (second compound 0.1 µM, first compound 0.01 µM): 96.6%
viability, T/C [21]: 87.1%
viability, T/C [22]: 69.1%
viability, T/C (second compound 0.316 µM, first compound 0.000316 µM): 102%
viability, T/C (second compound 0.316 µM, first compound 0.001 µM): 96.9%
viability, T/C (second compound 0.316 µM, first compound 0.00316 µM): 98.5%
viability, T/C (second compound 0.316 µM, first compound 0.01 µM): 107%
viability, T/C [23]: 73%
viability, T/C [24]: 63.9%
viability, T/C (second compound 1 µM, first compound 0.000316 µM): 104%
viability, T/C (second compound 1 µM, first compound 0.001 µM): 96.4%
viability, T/C (second compound 1 µM, first compound 0.00316 µM): 101%
viability, T/C (second compound 1 µM, first compound 0.01 µM): 89.3%
viability, T/C [25]: 79.1%
viability, T/C [26]: 64.7%
viability, T/C (second compound 3.16 µM, first compound 0.000316 µM): 90.1%
viability, T/C (second compound 3.16 µM, first compound 0.001 µM): 101%
viability, T/C (second compound 3.16 µM, first compound 0.00316 µM): 107%
viability, T/C (second compound 3.16 µM, first compound 0.01 µM): 82.9%
viability, T/C [27]: 84.9%
viability, T/C [28]: 64.6%
viability, T/C (second compound 10 µM, first compound 0.000316 µM): 96.7%
viability, T/C (second compound 10 µM, first compound 0.001 µM): 97.9%
viability, T/C (second compound 10 µM, first compound 0.00316 µM): 88.9%
viability, T/C (second compound 10 µM, first compound 0.01 µM): 79.2%
viability, T/C [29]: 67.1%
viability, T/C [30]: 51.1%

SMILES: CCN(c1cc(-c2ccc(CN3CCOCC3)cc2)cc(C(=O)NCc2c(C)cc(C)[nH]c2=O)c1C)C1CCOCC1 + Cc1ccccc1N=Nc1ccc(NC(=O)c2ccnn2C)c(C)c1
IC50 (second compound 0.1 µM): > 3000 nM
IC50 (second compound 0.316 µM): > 3000 nM
IC50 (second compound 1 µM): > 3000 nM
IC50 (second compound 3.16 µM): > 3000 nM
IC50 (second compound 10 µM): 114 nM
viability, T/C [1]: 116%
viability, T/C [2]: 111%
viability, T/C [3]: 104%
viability, T/C [4]: 80.5%
viability, T/C (second compound 0.1 µM, first compound 0.949 µM): 78.8%
viability, T/C (second compound 0.1 µM, first compound 3 µM): 79%
viability, T/C [5]: 117%
viability, T/C [6]: 110%
viability, T/C [7]: 94.5%
viability, T/C [8]: 89.8%
viability, T/C (second compound 0.316 µM, first compound 0.949 µM): 80.8%
viability, T/C (second compound 0.316 µM, first compound 3 µM): 68.5%
viability, T/C [9]: 106%
viability, T/C [10]: 108%
viability, T/C [11]: 108%
viability, T/C [12]: 87.2%
viability, T/C (second compound 1 µM, first compound 0.949 µM): 71%
viability, T/C (second compound 1 µM, first compound 3 µM): 65.7%
viability, T/C [13]: 98.6%
viability, T/C [14]: 95.5%
viability, T/C [15]: 78.8%
viability, T/C [16]: 69.6%
viability, T/C (second compound 3.16 µM, first compound 0.949 µM): 57.8%
viability, T/C (second compound 3.16 µM, first compound 3 µM): 60.1%
viability, T/C [17]: 49.1%
viability, T/C [18]: 62.3%
viability, T/C [19]: 47.9%
viability, T/C [20]: 45.8%
viability, T/C (second compound 10 µM, first compound 0.949 µM): 43.3%
viability, T/C (second compound 10 µM, first compound 3 µM): 40.6%

Continued, in another order:

IC50 (second compound 0.1 µM): < 0.949 nM
IC50 (second compound 0.316 µM): < 0.949 nM
IC50 (second compound 1 µM): < 0.949 nM
IC50 (second compound 3.16 µM): < 0.949 nM
IC50 (second compound 10 µM): < 0.949 nM
SMILES: CCc1c2c(nc3ccc(O)cc13)-c1cc3c(c(=O)n1C2)COC(=O)[C@]3(O)CC + Cc1ccccc1N=Nc1ccc(NC(=O)c2ccnn2C)c(C)c1
viability, T/C (second compound 0.1 µM, first compound 0.000949 µM): 15.3%
viability, T/C (second compound 0.1 µM, first compound 0.003 µM): 7.41%
viability, T/C [1]: 6.43%
viability, T/C [2]: 4.14%
viability, T/C [3]: 1.83%
viability, T/C [4]: 1.03%
viability, T/C (second compound 0.316 µM, first compound 0.000949 µM): 17.7%
viability, T/C (second compound 0.316 µM, first compound 0.003 µM): 7.53%
viability, T/C [5]: 5.71%
viability, T/C [6]: 3.77%
viability, T/C [7]: 1.78%
viability, T/C [8]: 1.57%
viability, T/C (second compound 1 µM, first compound 0.000949 µM): 16.8%
viability, T/C (second compound 1 µM, first compound 0.003 µM): 6.58%
viability, T/C [9]: 5.11%
viability, T/C [10]: 4.84%
viability, T/C [11]: 2.6%
viability, T/C [12]: 1.23%
viability, T/C (second compound 3.16 µM, first compound 0.000949 µM): 17.2%
viability, T/C (second compound 3.16 µM, first compound 0.003 µM): 6.69%
viability, T/C [13]: 5.43%
viability, T/C [14]: 4.44%
viability, T/C [15]: 2.64%
viability, T/C [16]: 1.47%
viability, T/C (second compound 10 µM, first compound 0.000949 µM): 14.9%
viability, T/C (second compound 10 µM, first compound 0.003 µM): 7.42%
viability, T/C [17]: 5.87%
viability, T/C [18]: 3.54%
viability, T/C [19]: 2.17%
viability, T/C [20]: 1.29%

IC50 (second compound 0.1 µM): < 31.6 nM
IC50 (second compound 0.316 µM): < 31.6 nM
IC50 (second compound 1 µM): < 31.6 nM
IC50 (second compound 3.16 µM): < 31.6 nM
IC50 (second compound 10 µM): < 31.6 nM
SMILES: COc1cccc2c1C(=O)c1c(O)c3c(c(O)c1C2=O)CC(O)(C(=O)CO)CC3OC1CC(N)C(O)C(C)O1 (stereo unspecified) + Cc1cncc(-c2nc(NCCc3c[nH]c4ccccc34)c3ncn(C(C)C)c3n2)c1
viability, T/C [21]: 23.9%
viability, T/C [22]: 15.2%
viability, T/C (second compound 0.1 µM, first compound 0.316 µM): 5.94%
viability, T/C (second compound 0.1 µM, first compound 1 µM): 0.65%
viability, T/C (second compound 0.1 µM, first compound 3.16 µM): 2.45%
viability, T/C (second compound 0.1 µM, first compound 10 µM): 1.44%
viability, T/C [23]: 24.4%
viability, T/C [24]: 19.5%
viability, T/C (second compound 0.316 µM, first compound 0.316 µM): 6.25%
viability, T/C (second compound 0.316 µM, first compound 1 µM): 0.34%
viability, T/C (second compound 0.316 µM, first compound 3.16 µM): 2.13%
viability, T/C (second compound 0.316 µM, first compound 10 µM): 1.46%
viability, T/C [25]: 19.7%
viability, T/C [26]: 17.9%
viability, T/C (second compound 1 µM, first compound 0.316 µM): 5.13%
viability, T/C (second compound 1 µM, first compound 1 µM): 0.84%
viability, T/C (second compound 1 µM, first compound 3.16 µM): 1.28%
viability, T/C (second compound 1 µM, first compound 10 µM): 1.33%
viability, T/C [27]: 17.6%
viability, T/C [28]: 12.1%
viability, T/C (second compound 3.16 µM, first compound 0.316 µM): 3.2%
viability, T/C (second compound 3.16 µM, first compound 1 µM): 0.73%
viability, T/C (second compound 3.16 µM, first compound 3.16 µM): 0.57%
viability, T/C (second compound 3.16 µM, first compound 10 µM): 0.58%
viability, T/C [29]: 11.9%
viability, T/C [30]: 5.06%
viability, T/C (second compound 10 µM, first compound 0.316 µM): 0.48%
viability, T/C (second compound 10 µM, first compound 1 µM): 0.21%
viability, T/C (second compound 10 µM, first compound 3.16 µM): 0.27%
viability, T/C (second compound 10 µM, first compound 10 µM): 0.26%
